Experimental data reported in US8466188B2, “Use of spiro-oxindole compounds as therapeutic agents” (Xenon Pharmaceuticals Inc., priority 2006, dated 2013).

tested on: sodium channel; assay: Guanidine influx assay (14C-guanidine radiotracer flux) in a known cell line that expresses a sodium channel; assay type: cell-based, human or rat
From the text: This example describes an in vitro assay for testing and profiling test agents against human or rat sodium channels stably expressed in cells of either an endogenous or recombinant origin.
The guanidine influx assay is a radiotracer flux assay used to determine ion flux activity of sodium channels in a high-throughput microplate-based format. The assay uses ^14C-guanidine hydrochloride in combination with various known sodium channel modulators, to assay the potency of test agents. Potency is determined by an IC50 calculation. Selectivity is determined by comparing potency of the compound for the channel of interest to its potency against other sodium channels (also called ‘selectivity profiling’).
Each of the test agents is assayed against cells that express the sodium channel of interest. Voltage gated sodium channels are either TTX sensitive or insensitive. This property is useful when evaluating the activities of a channel of interest when it resides in a mixed population with other sodium channels. The following Table 1 lists certain cell lines which are useful in screening for a certain sodium channel activity in the presence or absence of TTX.
It is also possible to employ recombinant cells expressing these sodium channels.
Cells expressing the channel of interest are grown according to the supplier or in the case of a recombinant cell in the presence of selective growth media such as G418 (Gibco/Invitrogen). The cells are disassociated from the culture dishes with an enzymatic solution (1×) Trypsin/EDTA (Gibco/Invitrogen) and analyzed for density and viability using haemocytometer (Neubauer). Disassociated cells are washed and resuspended in their culture media then plated into Scintiplates (Beckman Coulter Inc.) (approximately 100,000 cells/well) and incubated at 37° C./5% CO2 for 20-24 hours. After an extensive wash with Low sodium HEPES-buffered saline solution (LNHBSS) (150 mM Choline Chloride, […] (Sigma), 1 mM Calcium Chloride, 5 mM Potassium Chloride, 1 mM Magnesium Chloride, 10 mM Glucose) agents diluted with LNHBSS are added to each well. (Varying concentrations of test agent may be used). The activation/radiolabel mixture contains aconitine (Sigma), and ^14C-guanidine hydrochloride (ARC).
After loading the cells with test agent and activation/radiolabel mixture, the Scintiplates are incubated at ambient temperature. Following the incubation, the Scintplates are extensively washed with LNHBSS supplemented with guanidine (Sigma). The Scintiplates are dried and then counted using a Wallac MicroBeta TriLux (Perkin-Elmer Life Sciences). The ability of the test agent to block sodium channel activity is determined by comparing the amount of ^14C-guanidine present inside the cells expressing the different sodium channels.
IC50 value of a test agent for a specific sodium channel may be determined using the above general method. […] The IC50 curve is calculated using the 4 Parameter Logistic Model or Sigmoidal Dose-Response Model formula (fit=(A+((B−A)/(1+((C/x)^D)))).
The fold selectivity, factor of selectivity or multiple of selectivity, is calculated by dividing the IC50 value of the test sodium channel by the reference sodium channel, for example, Nav1.5.
The Example numbers provided in Table 2 correspond to the Example numbers herein: […]

SMILES | IC50
O=C(O)CN1C(=O)C2(COc3cc4c(cc32)OCO4)c2ccccc21 (stereo not drawn) [Example 2, (2′-oxospiro[furo[2,3-f][1,3]benzodioxole-7,3′-indol]-1′(2′H)-yl)acetic acid] | > 1000 nM
O=C(CN1C(=O)C2(COc3cc4c(cc32)OCO4)c2ccccc21)NCc1ccc(Cl)cc1 (stereo not drawn) [Example 3, N-(4-chlorobenzyl)-2-(2′-oxospiro[furo[2,3-f][1,3]benzodioxole-7,3′-indol]-1′(2′H)-yl)acetamide] | 100 to 1000 nM
CCCCCN1C(=O)C2(COc3cc4c(cc32)OCO4)c2c(-c3ccc(N(C)C)nc3)cccc21 (stereo not drawn) [Example 4, 4′-[6-(dimethylamino)pyridin-3-yl]-1′-pentylspiro[furo[2,3-f][1,3]benzodioxole-7,3′-indol]-2′(1′H)one] | 100 to 1000 nM
CCCCCN1C(=O)C2(COc3cc4c(cc32)OCO4)c2c(Nc3ccc(OC)nc3)cccc21 (stereo not drawn) [Example 5, 4′-[(6-methoxypyridin-3-yl)amino]-1′-pentylspiro[furo[2,3-f][1,3]benzodioxole-7,3′-indol]-2′(1′H)-one] | 100 to 1000 nM
O=C(O)c1ccccc1CN1C(=O)C2(COc3cc4c(cc32)OCO4)c2ccccc21 (stereo not drawn) [Example 6, 2-[(2′-oxospiro[furo[2,3-f][1,3]benzodioxole-7,3′-indol]-1′(2′H)-yl)methyl]benzoic acid] | > 1000 nM
O=C(NCCc1ccc(Cl)cc1)c1ccccc1CN1C(=O)C2(COc3cc4c(cc32)OCO4)c2ccccc21 (stereo not drawn) [Example 7, N-[2-(4-chlorophenyl)ethyl]-2-[(2′-oxospiro[furo[2,3-f][1,3]benzodioxole-7,3′-indol]-1′(2′H)-yl)methyl]benzamide] | 100 to 1000 nM
O=C(O)c1cccc(CN2C(=O)C3(COc4cc5c(cc43)OCO5)c3ccccc32)c1 (stereo not drawn) [Example 8, 3-[(2′-oxospiro[furo[2,3-f][1,3]benzodioxole-7,3′-indol]-1′(2′H)-yl)methyl]benzoic acid] | 100 to 1000 nM
O=C(NCCc1cccc(Cl)c1)c1cccc(CN2C(=O)C3(COc4cc5c(cc43)OCO5)c3ccccc32)c1 (stereo not drawn) [Example 9, N-[2-(3-chlorophenyl)ethyl]-3-[(2′-oxospiro[furo[2,3-f][1,3]benzodioxole-7,3′-indol]-1′(2′H)-yl)methyl]benzamide] | 100 to 1000 nM
O=C1N(Cc2ccc(F)cc2)c2ccccc2C12COc1cc3c(cc12)OCO3 (stereo not drawn) [Example 10, 1′-(4-fluorobenzyl)spiro[furo[2,3-f][1,3]benzodioxole-7,3′-indol]-2′(1′H)-one] | 10 to 100 nM
O=C(O)c1ccc(CN2C(=O)C3(COc4cc5c(cc43)OCO5)c3ccccc32)cc1 (stereo not drawn) [Example 11, 4-[(2′-oxospiro[furo[2,3-f][1,3]benzodioxole-7,3′-indol]-1′(2′H)-yl)methyl]benzoic acid] | > 1000 nM
O=C(Nc1cccc(F)c1)c1ccc(CN2C(=O)C3(COc4cc5c(cc43)OCO5)c3ccccc32)cc1 (stereo not drawn) [Example 12, N-(3-fluorophenyl)-4-[(2′-oxospiro[furo[2,3-f][1,3]benzodioxole-7,3′-indol]-1′(2′H)-yl)methyl]benzamide] | 100 to 1000 nM
O=C1N(CCCO)c2ccccc2C12COc1cc3c(cc12)OCO3 (stereo not drawn) [Example 13, 1′-(3-hydroxypropyl)spiro[furo[2,3-f][1,3]benzodioxole-7,3′-indol]-2′(1′H)-one] | 10 to 100 nM
O=C1N(CCCNCC2CC2)c2ccccc2C12COc1cc3c(cc12)OCO3 (stereo not drawn) [Example 15, 1′-{3-[(cyclopropylmethyl)amino]propyl}spiro[furo[2,3-f][1,3]benzodioxole-7,3′-indol]-2′(1′H)-one] | > 1000 nM
NCCCN1C(=O)C2(COc3cc4c(cc32)OCO4)c2ccccc21 (stereo not drawn) [Example 16, 1′-(3-aminopropyl)spiro[furo[2,3-f][1,3]benzodioxole-7,3′-indol]-2′(1′H)-one] | > 1000 nM
O=C(NCCCN1C(=O)C2(COc3cc4c(cc32)OCO4)c2ccccc21)c1sccc1Cl (stereo not drawn) [Example 17, 3-chloro-N-[3-(2′-oxospiro[furo[2,3-f][1,3]benzodioxole-7,3′-indol]-1′(2′H)-yl)propyl]thiophene-2-carboxamide] | 10 to 100 nM
NCCN1C(=O)C2(COc3cc4c(cc32)OCO4)c2ccccc21 (stereo not drawn) [Example 18, 1′-(2-aminoethyl)spiro[furo[2,3-f][1,3]benzodioxole-7,3′-indol]-2′(1′H)-one] | > 1000 nM
O=C(NCCN1C(=O)C2(COc3cc4c(cc32)OCO4)c2ccccc21)Nc1ccc(F)cc1 (stereo not drawn) [Example 19, 1-(4-fluorophenyl)-3-[2-(2′-oxospiro[furo[2,3-f][1,3]benzodioxole-7,3′-indol]-1′(2′H)-yl)ethyl]urea] | > 1000 nM

SMILES | IC50
CCCCCN1C(=O)C2(CC(=O)c3cc4c(cc32)OCO4)c2ccccc21 (stereo not drawn) [Example 21, 1′-pentylspiro[indeno[5,6-d][1,3]dioxole-5,3′-indole]-2′,7(1′H,6H)-dione] | 1 to 10 nM
CCCCCN1C(=O)C2(CCC(=O)c3cc4c(cc32)OCO4)c2ccccc21 (stereo not drawn) [Example 22, 1-pentyl-6′H-spiro[indole-3,5′-naphtho[2,3-d][1,3]dioxole]-2,8′(1′H,7′H)-dione] | 1 to 10 nM
CCCCCN1C(=O)C2(CCc3cc4c(cc32)OCO4)c2ccccc21 (stereo not drawn) [Example 23, 1′-pentyl-6,7-dihydrospiro[indeno[5,6-d][1,3]dioxole-5,3′-indol]-2′(1′H)-one] | 100 to 1000 nM
CCCCCN1C(=O)C2(CCCc3cc4c(cc32)OCO4)c2ccccc21 (stereo not drawn) [Example 24, 1-pentyl-7′,8′-dihydro-6′H-spiro[indole-3,5′-naphtho[2,3-d][1,3]dioxol]-2(1H)-one] | 1 to 10 nM
CCCCCN1C(=O)C2(CC(O)c3cc4c(cc32)OCO4)c2ccccc21 (stereo not drawn) [Example 26, 7-hydroxy-1′-pentyl-6,7-dihydrospiro[indeno[5,6-d][1,3]dioxole-5,3′-indol]-2′(1′H)-one] | > 1000 nM
CCCCCN1C(=O)C2(CC(OC)c3cc4c(cc32)OCO4)c2ccccc21 (stereo not drawn) [Example 27, 7-methoxy-1′-pentyl-6,7-dihydrospiro[indeno[5,6-d][1,3]dioxole-5,3′-indol]-2′(1′H)-one] | > 1000 nM
CCCCCN1C(=O)C2(CNC(=O)c3cc4c(cc32)OCO4)c2ccccc21 (stereo not drawn) [Example 28, 1′-pentyl-6,7-dihydro-5H-spiro[1,3-dioxolo[4,5-d]isoquinoline-8,3′-indole]-2′,5(1′H)-dione] | > 1000 nM
CCCCCN1C(=O)C2(COc3cc4c(cc32)OCO4)c2c(C(=O)Nc3ccccn3)cccc21 (stereo not drawn) [Example 29, 2′-oxo-1′-pentyl-N-pyridin-2-yl-1′,2′-dihydrospiro[furo[2,3-f][1,3]benzodioxole-7,3′-indole]-4′-carboxamide] | > 1000 nM
CCCCCCN1C(=O)C2(CC(=O)Oc3cc4c(cc32)OCO4)c2ccccc21 (stereo not drawn) [Example 31, 1′-hexylspiro[1,3-dioxolo[4,5-g]chromene-8,3′-indole]-2′,6(1′H,7H)-dione] | > 1000 nM
CCCCCN1C(=O)C2(COc3ccccc32)c2ccccc21 (stereo not drawn) [Example 32, 1′-pentylspiro[1-benzofuran-3,3′-indol]-2′(1′H)-one] | 10 to 100 nM
CCCCCN1C(=O)C2(COc3cc(Nc4ccccc4)ccc32)c2ccccc21 (stereo not drawn) [Example 33, 6-anilino-1′-pentylspiro[1-benzofuran-3,3′-indol]-2′(1′H)-one] | > 1000 nM
CCCCCN1C(=O)C2(COc3cc(N4CCOCC4)ccc32)c2ccccc21 (stereo not drawn) [Example 34, 6-morpholin-4-yl-1′-pentylspiro[1-benzofuran-3,3′-indol]-2′(1′H)-one] | > 1000 nM
CCCCCN1C(=O)C2(COc3cc(Oc4ccccc4)ccc32)c2ccccc21 (stereo not drawn) [Example 36, 1′-pentyl-6-phenoxyspiro[1-benzofuran-3,3′-indol]-2′(1′H)-one] | > 1000 nM
CCCCCN1C(=O)C2(COc3cc(-c4cccnc4)ccc32)c2ccccc21 (stereo not drawn) [Example 37, 1′-pentyl-6-pyridin-3-ylspiro[1-benzofuran-3,3′-indol]-2′(1′H)-one] | > 1000 nM
CCCCCN1C(=O)C2(COc3cc(S(C)(=O)=O)ccc32)c2ccccc21 (stereo not drawn) [Example 39, 6-(methylsulfonyl)-1′-pentylspiro[1-benzofuran-3,3′-indol]-2′(1′H)-one] | > 1000 nM
CCCCCN1C(=O)C2(COc3cc(S(=O)(=O)c4ccccc4)ccc32)c2ccccc21 (stereo not drawn) [Example 40, 1′-pentyl-6-(phenylsulfonyl)spiro[1-benzofuran-3,3′-indol]-2′(1′H)-one] | 100 to 1000 nM
